# In patent US20190209581A1, “DOSAGE REGIMEN FOR TREATMENT OF SOLID TUMORS” (Eli Lilly and Company, priority 2016, published 2019):
# What was measured:
# Type in all cases: in vivo
# Sprague Dawley rats = test: Toxicity study in rats, oral gavage, daily or 3 times/week for 2 weeks
# Experimental: A study is carried out to assess the toxicity and toxicokinetics of 4,4,4-Trifluoro-N-[(1S)-2-[[(7S)-5-(2-hydroxyethyl)-6-oxo-7H-pyrido[2,3-d][3]benzazepin-7-yl]amino]-1-methyl-2-oxo-ethyl]butanamide in rats given oral gavage doses of 0, 1.3, or 4.3 mg/kg once daily for 2 weeks or 1, 3, 10, or 30 mg/kg 3 times/week for 2 weeks.
# 4,4,4-Trifluoro-N-[(1S)-2-[[(7S)-5-(2-hydroxyethyl)-6-oxo-7H-pyrido[2,3-d][3]benzazepin-7-yl]amino]-1-methyl-2-oxo-ethyl]butanamide is combined with a vehicle comprising 1% carboxymethylcellulose sodium, 0.25% polysorbate 80 and 0.05% Dow Corning® Antifoam 1510-US in purified water. Sprague Dawley CD®/IGS rats (crl:CD(SD)), International Genetic Standardization (IGS) 7-9 week old rats, 3/sex/group, Charles River Laboratories, Inc, are used for the study. Animals are fed ad libitum with 12 hours light, 12 hours dark cycle maintained in ventilated stainless-steel racks at an ambient temperature of 22.2+/[…] and relative humidity of 30% to 70%. The test compound is dosed according to Table 1. The test compound is administered by oral gavage in a volume of 10 mL/kg body weight. The duration of the study for all groups is 14 days.
# Observations, at a minimum, for Groups 01, 06 and 07 are recorded daily before dosing, approximately one (1) hour postdose, and in the afternoon except afternoon observations are not recorded on weekends. Observations for Groups 02, 03, 04, and 05 are recorded beginning on Day 3. At a minimum, observations are recorded as described on dosing days. On non-dosing days, observations are recorded at approximately the same time as for groups receiving daily doses. Animals are weighed on Days 1, 3, 6, 10, and 14. Terminal body weights are collected at scheduled necropsy. Food consumption weights are recorded on Days 1, 3, 6, 10, and 14.
# [1] = system: A2780 human ovarian cell line; test: Tumor growth inhibition, A2780 xenograft; details: for % TGI: A2780 in mice
# Experimental: To evaluate in vivo efficacy and effect of 4,4,4-Trifluoro-N-[(1S)-2-[[(7S)-5-(2-hydroxyethyl)-6-oxo-7H-pyrido[2,3-d][3]benzazepin-7-yl]amino]-1-methyl-2-oxo-ethyl]butanamide on inhibition of Notch processing pharmacodynamics (PD), several cell lines- and patient-derived xenograft models are used. A2780 is a human ovarian cell line (Sigma-Aldrich, No. 93112519); SW480 is a human colorectal cell line (ATCC No. CCL-228); HCT 116 is a human colorectal cell line (ATCC No. CCL-247); U-87 MG is a human glioblastoma cell line (ATCC No. HTB-14); A375 is a human malignant melanoma cell line (ATCC No. CRL-1619); K-562 is a human chronic myelogenous leukemia (CML) cell line characterized by the presence of a fusion transcript comprised of the Bcr and Abl1 genes (ATCC No. CCL-243); Jurkat; HEL 92.1.7 is a human erythroleukemia cell line (ATCC No. TIB-180). Each of the cell lines are obtained from the American Type Culture Collection (ATCC) at the ATCC number stated, except the A2780 cell line which is obtained from Sigma-Aldrich at the stated catalog number. The cells are grown in their respective, recommended culture media at 37° C. in 5% CO2 with humidity in the atmosphere. A2780 (2×10^6), SW480 (6×10^6), HCT 116 (6×10^6), U-87 MG (6×10^6), and A-375 (10×10^6) cells in a 1:1 matrigel mix (0.2 mL volume) are implanted by subcutaneous injection in the hind leg of 6-8 weeks of age athymic nude female mice (Harlan Laboratories). K-562 (6×10^6) cells in a 1:1 matrigel mix (0.2 mL volume) are implanted by subcutaneous injection in the hind leg of 6-8 weeks of age CD1 nμ/nμ female mice (Charles River Laboratories). HEL 92.1.7 (7×10^6) in a 1:1 matrigel mix (0.2 mL volume) are implanted by subcutaneous injection in the hind leg of 6-8 weeks of age CB17 severely combined immune deficient female mice (Taconic Farms). Patient-derived tumors are minced into 1-2 mm pieces and mixed with matrigel (1:1) in 0.2 ml volume and implanted by subcutaneous injection in the hind leg of 6-8 weeks of age athymic nude female mice (Harlan Laboratories). Patients-derived tumor models include: human colon carcinoma (EL2144), human triple negative invasive ductal breast carcinoma (EL1997), human colon carcinoma (EL1989, EL 1986), and human glioblastoma (EL 2056) with samples obtained after patient consent and hospital approval from IU Health, Methodist Hospital, Indianapolis, Ind., USA 46206. A total of 7 to 10 mice are used for each group. Just before implantation for A2780, SW480, HEL 92.1.7, A-375, K-562, and patient-derived tumor models, animals are irradiated (450 Total Body Irradiation). Mice are fed ad libitum on normal chow. Treatment is initiated with oral administration (gavage) of compound or vehicle (1% Na-CMC in 0.25% Tween®-80) in 0.2 mL volume when tumor size reached to 150±50 mm^3. At designated time points following treatment, animals are sacrificed by CO2 asphyxiation and cervical dislocation. Tumors are removed and used for PD response analysis. Tumor growth and body weight are monitored over time to evaluate efficacy and signs of toxicity. Bidimensional measurements of tumors are performed twice a week and tumor volumes are calculated based on the following formula: (Tumor Volume)=[(L)×(W2)×(Π/6)] where L is mid-axis length and W is mid-axis width. Tumor volume data are transformed to a log scale to equalize variance across time and treatment groups. The log volume data are analyzed with a two-way repeated measures analysis of variance by time and treatment using the MIXED™ procedures in SAS™ software (version 8.2). The correlation model for the repeated measures is spatial power. Treated groups are compared to the control group at each time point. The MIXED™ procedure is also used separately for each treatment group to calculate adjusted means and standard errors at each time point. Both analyses account for the autocorrelation within each animal and the loss of data that occurs when animals with large tumors are removed from the study early. […]
# [2] = system: K-562 human chronic myelogenous leukemia (CML) cell line; test: Tumor growth inhibition, K-562 xenograft; details: K-562 in mice, oral 8 mg/kg, (Mon, Wed, Fri)x4; p <0.05 to <0.001
# Experimental: To evaluate in vivo efficacy and effect of 4,4,4-Trifluoro-N-[(1S)-2-[[(7S)-5-(2-hydroxyethyl)-6-oxo-7H-pyrido[2,3-d][3]benzazepin-7-yl]amino]-1-methyl-2-oxo-ethyl]butanamide on inhibition of Notch processing pharmacodynamics (PD), several cell lines- and patient-derived xenograft models are used. A2780 is a human ovarian cell line (Sigma-Aldrich, No. 93112519); SW480 is a human colorectal cell line (ATCC No. CCL-228); HCT 116 is a human colorectal cell line (ATCC No. CCL-247); U-87 MG is a human glioblastoma cell line (ATCC No. HTB-14); A375 is a human malignant melanoma cell line (ATCC No. CRL-1619); K-562 is a human chronic myelogenous leukemia (CML) cell line characterized by the presence of a fusion transcript comprised of the Bcr and Abl1 genes (ATCC No. CCL-243); Jurkat; HEL 92.1.7 is a human erythroleukemia cell line (ATCC No. TIB-180). […] Tumor growth and body weight are monitored over time to evaluate efficacy and signs of toxicity. Bidimensional measurements of tumors are performed twice a week and tumor volumes are calculated based on the following formula: (Tumor Volume)=[(L)×(W2)×(Π/6)] where L is mid-axis length and W is mid-axis width. […] The log volume data are analyzed with a two-way repeated measures analysis of variance by time and treatment using the MIXED™ procedures in SAS™ software (version 8.2). […]
compound,measurement,setting,value
"C[C@H](NC(=O)CCC(F)(F)F)C(=O)N[C@@H]1C(=O)N(CCO)c2ncccc2-c2ccccc21 [Compound 1, 4,4,4-trifluoro-N-[(1S)-2-[[(7S)-5-(2-hydroxyethyl)-6-oxo-7H-pyrido[2,3-d][3]benzazepin-7-yl]amino]-1-methyl-2-oxo-ethyl]butanamide]",Tolerability of once daily administration at same total weekly dose,"Sprague Dawley rats; rat, in vivo",once daily administration is not tolerated
same,"Compound related toxicities, kidney","Sprague Dawley rats; rat, in vivo, 10 mg/kg",minimal to slight renal tubular degeneration
same,"Gastrointestinal toxicity, daily versus three times/week at same total weekly dose","Sprague Dawley rats; rats, 1.3 mg/kg daily or 3 mg/kg three times/week, 4.3 mg/kg daily or 10 mg/kg three times/week",more severe gastrointestinal toxicity with daily dosing compared to three times/week dosing
same,Survival,"Sprague Dawley rats; rats, 2 of 3 female TK animals, daily doses of 1.3 mg/kg",euthanized on Day 10 due to poor condition
same,Survival,"Sprague Dawley rats; rats, TK animals, daily doses of 4.3 mg/kg","found dead on Days 7, 8, or 10"
same,Survival,"Sprague Dawley rats; rats, all non-TK, male TK and 1 of 3 female TK animals, daily doses of 1.3 mg/kg",survived until the scheduled study termination
same,Survival,"Sprague Dawley rats; rats, all non-toxicokinetic animals, 30 mg/kg 3 times/week",euthanized on Day 10 due to poor condition
same,Survival,"Sprague Dawley rats; rats, animals given daily doses of 4.3 mg/kg (other than TK)",euthanized on Day 10 due to poor condition
same,Survival,"Sprague Dawley rats; rats, non-TK animals given ≤10 mg/kg and TK animals given ≤3 mg/kg 3 times/week",survived until the scheduled study termination
same,Survival,"Sprague Dawley rats; rats, two of three TK animals, 10 mg/kg 3 times/week",euthanized on Day 10 due to poor condition and the remaining TK animal was found dead prior to the 48 hr TK time point on Day 16
same,% TGI,"[1]; oral 1.5 mg/kg, QDx26, p <0.05 to <0.01",33.36 (<0.05 to %
same,% TGI,"[1]; oral 3 mg/kg, (BID)QDx7 + (BID)Q2Dx7, p <0.0001",72.35 (<0.0001) %
same,% TGI,"[1]; oral 3 mg/kg, Q2Dx13, p <0.05 to <0.01",36.65 (<0.05 to %
same,% TGI,"[1]; oral 3 mg/kg, QDx21, p <0.0001",46.60 (<0.0001) %
same,% TGI,"[1]; oral 6 mg/kg, Q2Dx13, p <0.05 to <0.01",36.33 (<0.05 to %
same,% TGI,"[1]; oral 7 mg/kg, Q2Dx13, p <0.0001",56.95 (<0.0001) %
same,% TGI,"[1]; oral 8 mg/kg, Q2Dx13, p <0.0001",68.60 (<0.0001) %
same,% TGI,"[1]; oral 10 mg/kg, Q2Dx11, p <0.0001",56.55 (<0.0001) %
same,% TGI,"[1]; oral 10 mg/kg, Q2Dx13, p <0.0001",51.11 (<0.0001) %
same,% TGI,"[1]; oral 10 mg/kg, Q3Dx8, p <0.0001",32.99 (<0.0001) %
same,Effect of alternative dosing regimens on tumor growth inhibition,[1]; xenograft models of Table 5,more frequent dosing affords greater efficacy
same,% TGI,[2],54.96 (<0.05 to %
